Activity calls are given as the source filed them.
Key:
Protein skinhead-1 = target: T1, Protein skinhead-1 (Caenorhabditis elegans, UniProt P34707); type: functional
T1 sequence (P34707 whole entry): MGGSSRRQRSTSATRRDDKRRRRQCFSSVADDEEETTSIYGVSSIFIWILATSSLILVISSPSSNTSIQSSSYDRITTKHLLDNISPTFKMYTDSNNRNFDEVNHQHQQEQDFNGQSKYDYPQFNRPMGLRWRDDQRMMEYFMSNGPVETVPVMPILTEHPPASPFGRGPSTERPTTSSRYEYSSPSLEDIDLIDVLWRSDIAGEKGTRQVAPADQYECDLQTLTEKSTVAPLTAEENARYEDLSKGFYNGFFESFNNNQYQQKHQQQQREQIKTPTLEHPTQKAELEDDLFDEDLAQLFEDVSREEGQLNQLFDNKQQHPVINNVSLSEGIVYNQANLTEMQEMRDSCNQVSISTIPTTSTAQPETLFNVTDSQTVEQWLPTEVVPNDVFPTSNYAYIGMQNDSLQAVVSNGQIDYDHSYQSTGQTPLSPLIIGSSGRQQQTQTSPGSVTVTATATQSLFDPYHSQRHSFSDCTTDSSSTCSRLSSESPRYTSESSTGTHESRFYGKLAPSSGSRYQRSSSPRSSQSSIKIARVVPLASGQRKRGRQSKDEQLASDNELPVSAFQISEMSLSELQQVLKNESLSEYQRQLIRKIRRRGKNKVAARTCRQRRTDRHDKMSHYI

HT-1080 = assay: cytotoxicity in HT1080 fibrosarcoma cells, cell-based, fluorescence readout (AID 620); type: functional; details: Homo sapiens
[1] = target: Luciferin 4-monooxygenase (Photinus pyralis, UniProt P08659); assay: Counter Screen for Luciferase-based Assay Positives. [Related pubchem assays: 620, 618, 411 ]
Luciferin 4-monooxygenase, sequence (P08659 whole entry): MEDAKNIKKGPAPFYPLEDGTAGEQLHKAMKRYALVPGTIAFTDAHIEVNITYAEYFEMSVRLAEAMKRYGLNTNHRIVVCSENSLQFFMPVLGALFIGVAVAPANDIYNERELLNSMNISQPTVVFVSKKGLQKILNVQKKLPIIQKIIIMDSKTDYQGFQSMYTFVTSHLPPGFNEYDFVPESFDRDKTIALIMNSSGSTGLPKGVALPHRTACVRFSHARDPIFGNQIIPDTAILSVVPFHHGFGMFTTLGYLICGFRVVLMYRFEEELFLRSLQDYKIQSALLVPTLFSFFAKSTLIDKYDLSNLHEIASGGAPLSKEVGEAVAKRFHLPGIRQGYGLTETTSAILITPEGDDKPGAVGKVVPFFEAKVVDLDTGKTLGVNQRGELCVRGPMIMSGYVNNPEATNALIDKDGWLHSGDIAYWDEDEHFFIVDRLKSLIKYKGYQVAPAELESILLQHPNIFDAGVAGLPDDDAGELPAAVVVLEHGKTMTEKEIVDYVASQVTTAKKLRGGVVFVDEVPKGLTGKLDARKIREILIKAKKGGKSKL

[2] = target: Induced myeloid leukemia cell differentiation protein Mcl-1 (Homo sapiens, UniProt Q07820); type: functional
Induced myeloid leukemia cell differentiation protein Mcl-1, sequence (Q07820 whole entry): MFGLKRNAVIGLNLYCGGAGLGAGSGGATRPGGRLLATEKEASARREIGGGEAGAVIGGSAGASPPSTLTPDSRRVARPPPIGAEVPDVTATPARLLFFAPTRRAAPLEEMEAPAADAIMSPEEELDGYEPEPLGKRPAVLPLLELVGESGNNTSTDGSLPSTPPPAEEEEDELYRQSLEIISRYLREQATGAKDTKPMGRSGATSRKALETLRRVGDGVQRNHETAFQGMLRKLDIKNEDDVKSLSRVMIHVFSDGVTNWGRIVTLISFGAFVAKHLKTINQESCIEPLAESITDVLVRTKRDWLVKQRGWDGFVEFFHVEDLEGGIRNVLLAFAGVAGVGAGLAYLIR

[3] = target: T2, Heat shock factor protein 1 (Mus musculus, UniProt P38532); assay: inhibition of MG132-induced HSE-luciferase signal, confirmation, cell-based, NIH3T3, luminescence, dose retest (AID 2382); type: functional;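 further: NIH3T3 fibroblasts with HSF1-driven luciferase reporter stressed by proteasome inhibitor MG132; luminescence from HSF1-driven luciferase expression after 8 hours of MG132 stress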
T2 sequence (P38532 whole entry): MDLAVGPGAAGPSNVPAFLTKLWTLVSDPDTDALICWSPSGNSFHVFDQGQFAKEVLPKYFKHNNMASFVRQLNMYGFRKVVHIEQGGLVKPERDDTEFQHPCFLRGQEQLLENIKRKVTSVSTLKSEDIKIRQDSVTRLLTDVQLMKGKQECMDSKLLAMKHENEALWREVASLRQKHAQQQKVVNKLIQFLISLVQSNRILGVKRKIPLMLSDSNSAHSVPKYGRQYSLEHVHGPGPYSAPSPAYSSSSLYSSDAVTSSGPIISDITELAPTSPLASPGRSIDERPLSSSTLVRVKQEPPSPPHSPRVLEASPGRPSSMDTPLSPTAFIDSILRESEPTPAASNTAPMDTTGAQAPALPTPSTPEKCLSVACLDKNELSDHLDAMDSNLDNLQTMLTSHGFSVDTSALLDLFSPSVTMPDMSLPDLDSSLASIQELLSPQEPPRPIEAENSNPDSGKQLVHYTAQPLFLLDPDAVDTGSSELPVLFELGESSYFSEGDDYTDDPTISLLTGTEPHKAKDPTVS

[4] = inhibitors of firefly luciferase expression or activity, dose response, H4 neuroglioma cells, luminescence (AID 1990); type: functional, cell-based
[5] = inhibitors of SNCA 5'UTR-driven reporter translation, confirmation, H4 neuroglioma cells, luminescence (AID 1988); type: functional, cell-based
[6] = Luminescence Cell-Based Dose Response HTS to Identify Inhibitors of 5'UTR Stem-Loop Driven Prion Protein mRNA Translation in H4 Neuroglioblastoma Cells. [Related pubchem assays: 1827 (Project Summary), 1813 (Primary HTS)]; type: functional
[7] = target: T3, Rac GTPase-activating protein 1 (Homo sapiens, UniProt Q9H0H5); assay: MgcRacGAP GTPase-activating activity inhibitors, confirmation, biochemical, ADP Hunter fluorescence, primary and confirmatory (AID 624330); type: functional
T3 sequence (Q9H0H5 whole entry): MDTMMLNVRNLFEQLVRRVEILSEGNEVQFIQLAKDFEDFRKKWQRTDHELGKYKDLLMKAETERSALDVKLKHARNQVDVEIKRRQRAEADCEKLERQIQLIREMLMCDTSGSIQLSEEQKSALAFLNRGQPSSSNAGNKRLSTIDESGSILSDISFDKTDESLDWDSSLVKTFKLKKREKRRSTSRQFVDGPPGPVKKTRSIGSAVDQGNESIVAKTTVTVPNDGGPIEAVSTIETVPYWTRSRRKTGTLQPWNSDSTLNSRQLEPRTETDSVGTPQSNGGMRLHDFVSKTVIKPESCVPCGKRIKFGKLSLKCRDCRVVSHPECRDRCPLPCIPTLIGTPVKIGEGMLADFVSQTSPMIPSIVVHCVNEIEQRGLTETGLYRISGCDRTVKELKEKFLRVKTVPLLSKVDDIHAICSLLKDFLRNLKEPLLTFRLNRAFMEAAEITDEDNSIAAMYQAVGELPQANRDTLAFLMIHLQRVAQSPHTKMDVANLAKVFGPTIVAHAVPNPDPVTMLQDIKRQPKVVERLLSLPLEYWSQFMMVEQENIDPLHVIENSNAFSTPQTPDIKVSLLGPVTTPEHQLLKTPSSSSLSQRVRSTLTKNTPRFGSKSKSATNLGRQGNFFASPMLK

[8] = MC4R antagonists, dose response, counter-screen for LGR2 antagonist project, cell-based, plate reader, cherry pick (AID 743444); type: functional;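 further: transfected HEK 293 cells stimulated with alpha-MSH peptide; potency of inhibitors of the alpha-MSH evoked signal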
[9] = LGR2 antagonists, dose response, cell-based, HEK293, CRE-luciferase reporter, cherry pick, set 2 (AID 743343); type: functional;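 further: transfected cells were stimulated with diluted bursicon conditioned medium after compound addition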
Estrogen receptor = target: T4, Estrogen receptor (Homo sapiens, UniProt P03372);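 further: potency for inhibiting coactivator peptide recruitment to the receptor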
T4 sequence (P03372 whole entry): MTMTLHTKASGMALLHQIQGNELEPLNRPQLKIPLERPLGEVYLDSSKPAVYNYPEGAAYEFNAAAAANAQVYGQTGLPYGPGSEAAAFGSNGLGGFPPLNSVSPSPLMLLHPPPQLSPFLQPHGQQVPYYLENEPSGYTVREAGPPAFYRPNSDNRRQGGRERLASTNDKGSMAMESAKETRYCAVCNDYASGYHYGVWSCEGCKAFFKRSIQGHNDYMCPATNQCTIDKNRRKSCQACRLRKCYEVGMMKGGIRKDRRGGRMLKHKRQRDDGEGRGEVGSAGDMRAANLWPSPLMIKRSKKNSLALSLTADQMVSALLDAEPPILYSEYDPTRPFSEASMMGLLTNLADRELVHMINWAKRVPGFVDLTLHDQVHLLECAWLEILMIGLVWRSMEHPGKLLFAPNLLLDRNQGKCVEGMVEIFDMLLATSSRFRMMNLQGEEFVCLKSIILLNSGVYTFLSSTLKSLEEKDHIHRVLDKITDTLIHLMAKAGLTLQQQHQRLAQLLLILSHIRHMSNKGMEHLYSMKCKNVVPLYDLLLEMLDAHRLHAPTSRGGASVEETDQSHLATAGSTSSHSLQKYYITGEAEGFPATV

[10] = Luminescence Cell-Based Dose Response HTS to Identify Activators of Luciferase Translation or Activity in H4 […] Cells. [Related pubchem assays: 1829 (Project Summary), 1814 (Primary HTS)]; type: functional
[11] = Luminescence Cell-Based Dose Confirmation HTS to Identify Activators of 5'UTR Stem-Loop Driven Alpha-Synuclein mRNA Translation in H4 Neuroglioblastoma Cells. [Related pubchem assays: 1829 (Project Summary), 1814 (Primary HTS)]; type: functional
H4 = assay: Luminescence Cell-Based Dose Response HTS to Identify Activators of 5'UTR Stem-Loop Driven Prion Protein mRNA Translation in H4 Neuroglioblastoma Cells. [Related pubchem assays: 1829 (Project Summary), 1814 (Primary HTS)]; type: functional; details: Homo sapiens
[12] = inhibitors of intracellular T. cruzi replication, confirmation, NIH3T3 host cells, beta-gal luminescence (AID 2044); type: functional, cell-based;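 further: intracellular parasites grown in NIH/3T3 mouse fibroblasts as host cells; luminescent beta-galactosidase reporter signal from transgenic T. cruzi replicating inside host cells; inhibitors lower the luminescence signal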
[13] = cytotoxicity toward NIH3T3 fibroblasts, dose response, counter-screen, cell-based, ATP luminescence, mouse fibroblasts (AID 2010); type: functional;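 further: cells exposed to compound for about 90 hours before reading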
[14] = target: T5, Replicative DNA helicase DnaB (Mycobacterium tuberculosis, UniProt P9WMR3); assay: DnaB intein splicing inhibitors, dose response, biochemical, cell-free fluorescence (AID 449749); type: functional
T5 sequence (P9WMR3 whole entry): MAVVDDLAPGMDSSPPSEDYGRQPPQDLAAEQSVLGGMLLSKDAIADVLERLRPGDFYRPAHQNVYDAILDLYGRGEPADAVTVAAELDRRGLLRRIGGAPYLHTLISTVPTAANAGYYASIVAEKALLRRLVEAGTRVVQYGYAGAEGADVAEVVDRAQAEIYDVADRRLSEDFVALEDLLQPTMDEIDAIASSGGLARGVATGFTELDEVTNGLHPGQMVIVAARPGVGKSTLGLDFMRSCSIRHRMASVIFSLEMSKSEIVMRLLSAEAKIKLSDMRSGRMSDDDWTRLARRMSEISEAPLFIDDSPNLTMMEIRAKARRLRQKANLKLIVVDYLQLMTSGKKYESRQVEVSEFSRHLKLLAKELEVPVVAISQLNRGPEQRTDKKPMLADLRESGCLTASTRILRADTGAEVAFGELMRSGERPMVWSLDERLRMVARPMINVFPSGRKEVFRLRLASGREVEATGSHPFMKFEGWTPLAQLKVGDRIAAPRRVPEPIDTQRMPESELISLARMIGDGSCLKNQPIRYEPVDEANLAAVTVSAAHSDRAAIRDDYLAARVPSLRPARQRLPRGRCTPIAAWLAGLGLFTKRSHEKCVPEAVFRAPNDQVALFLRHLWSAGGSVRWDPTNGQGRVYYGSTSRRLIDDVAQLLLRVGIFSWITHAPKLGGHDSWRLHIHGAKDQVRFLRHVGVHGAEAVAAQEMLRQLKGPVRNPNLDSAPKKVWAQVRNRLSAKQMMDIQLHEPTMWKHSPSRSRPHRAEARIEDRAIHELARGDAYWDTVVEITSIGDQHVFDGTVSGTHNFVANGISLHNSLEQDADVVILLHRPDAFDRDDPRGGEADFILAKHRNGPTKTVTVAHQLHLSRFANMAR

Protein RecA = target: T6, Protein RecA (Mycobacterium tuberculosis, UniProt P9WHJ3); assay: Fluorescence Cell-Free Homogeneous Dose Retest to Identify Inhibitors of RecA-Intein Splicing Activity. [Related pubchem assays (depositor defined):AID2097, AID2223, AID489010, AID492950]; type: functional
T6 sequence (P9WHJ3 whole entry): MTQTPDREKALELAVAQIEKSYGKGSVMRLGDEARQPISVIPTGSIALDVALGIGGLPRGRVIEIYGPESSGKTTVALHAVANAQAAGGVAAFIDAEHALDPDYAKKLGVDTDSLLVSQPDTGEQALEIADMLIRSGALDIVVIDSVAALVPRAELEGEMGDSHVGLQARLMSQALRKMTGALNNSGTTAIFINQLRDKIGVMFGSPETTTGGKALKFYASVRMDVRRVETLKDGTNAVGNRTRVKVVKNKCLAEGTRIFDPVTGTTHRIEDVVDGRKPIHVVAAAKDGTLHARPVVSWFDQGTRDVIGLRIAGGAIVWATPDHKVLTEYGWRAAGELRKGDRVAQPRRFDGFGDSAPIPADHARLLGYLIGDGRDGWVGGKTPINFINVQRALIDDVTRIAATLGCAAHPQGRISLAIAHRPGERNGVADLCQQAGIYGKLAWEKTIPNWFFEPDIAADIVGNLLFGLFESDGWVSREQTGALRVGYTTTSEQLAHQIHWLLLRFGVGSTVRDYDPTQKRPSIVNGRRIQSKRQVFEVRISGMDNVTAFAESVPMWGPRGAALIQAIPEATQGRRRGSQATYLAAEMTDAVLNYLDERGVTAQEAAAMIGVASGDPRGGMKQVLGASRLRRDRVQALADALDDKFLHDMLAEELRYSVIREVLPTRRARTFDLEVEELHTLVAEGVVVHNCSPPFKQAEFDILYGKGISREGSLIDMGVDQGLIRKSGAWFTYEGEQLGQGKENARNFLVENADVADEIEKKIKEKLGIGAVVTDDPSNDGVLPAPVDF

[15] = inhibitors of HIV Env-driven cell fusion, dose response, cherry-pick (AID 652057); type: functional, cell-based
[16] = ZM109 Env clade C HIV-1 fusion inhibitors, dose response, HeLa effector, CEM target cells, luciferase, cherry-pick (AID 652058); type: functional, cell-based
[17] = inhibitors of clade B AD8 Env fusion, dose response, cell-based, cherry-pick (AID 652062); type: functional;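 further: luciferase signal from cell-cell fusion driven by HIV-1 clade B AD8 Env; potency is for inhibitors of fusion seen as a drop in luminescence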

Compound: CCOc1ccc(-c2nnc(-c3ccco3)o2)cc1
- IC50 (Protein skinhead-1): 28.9 µM (active)
- EC50 (HT-1080): > 50 µM (not active)
- EC50 [1]: < 0.2 µM (active)

Compound: CCOc1ccc(C(=O)Nc2cc(NC(=O)c3ccc(OCC)c(Cl)c3)cc(C(=O)O)c2)cc1Cl
- IC50 [2]: 14.3 µM (active)

Compound: O=C(O)CCSc1nnc(-c2ccc3c(c2)OCO3)o1
- EC50 [3]: 3.01 µM (active)
- EC50 [4]: 8.07 µM (active)
- EC50 [5]: 10.6 µM (active)
- EC50 [6]: > 120 µM (not active)
- EC50 (HT-1080): > 50 µM (not active)
- EC50 [1]: 27.7 µM (active)

Compound: Cc1ccc(N2CC(C(=O)Nc3ccc(N(C)C)cc3)CC2=O)cc1C (centres undefined)
- IC50 [2]: 3.29 µM (not active)
- IC50 [7]: 54.2 µM (active)

Compound: O=C(Nc1ccc(Cl)c(S(=O)(=O)N2CCOCC2)c1)c1ccc2c(c1)OCCO2
- AC50 [8]: 38.9 µM (active)
- AC50 [9]: 37.9 µM (active)

Compound: Cn1cc(C(=O)NC2CCCCCC2)c(=O)c2cc(S(=O)(=O)N3CCCC3)ccc21
- IC50 (Estrogen receptor): > 50 µM (not active)

Compound: CCCCN1C(=O)NC(=O)/C(=C(/C)NNC(=O)Nc2ccccc2)C1=O
- EC50 [10]: 14.3 µM (active)
- EC50 [11]: > 120 µM (not active)
- EC50 (H4): > 120 µM (not active)

Compound: O=C1N=C(NNc2ccccc2)S/C1=C\c1ccccc1
- IC50 [2]: 4.76 µM (not active)

Compound: COc1ccc(OC)c(NC(=O)c2cc(-c3ccc(C)cc3O)[nH]n2)c1
- IC50 (Estrogen receptor): 22.1 µM (active)

Compound: CSc1ncc2c(n1)-c1cc(C)ccc1SC2
- EC50 [12]: 0.135 µM (active)
- EC50 [13]: > 30 µM (not active)
- IC50 (Estrogen receptor): > 50 µM (not active)

Compound: CCC(=O)N(CC)C1=C(O)C(=O)c2ccccc2C1=O
- AC50 [14]: 14.5 µM (active)
- IC50 [2]: 1.44 µM (active)
- EC50 (Protein RecA): 8.5 µM (active)

Compound: C[C@H]1CN([C@@H](C)CO)C(=O)c2cc(NC(=O)Nc3ccc4c(c3)OCO4)ccc2O[C@H]1CN(C)S(=O)(=O)c1ccc(Cl)cc1
- AC50 [15]: 1.49 µM (active)
- AC50 [16]: 5.25 µM (active)
- AC50 [17]: 14.5 µM (active)

Source: ChEMBL document CHEMBL1201862, “PubChem BioAssay data set” (2004)
